Experimental data reported in the NIST ThermoML archive (doi:10.1021/je200124h).

What was measured:
[1] = wn = mass fraction of the nth substance listed; conditions: for surface tension liquid-gas: Ring tensiometer; for viscosity / mass density: Liquid; for mass density: Pycnometric method
[2] = for surface tension liquid-gas: Ring tensiometer; for viscosity / mass density: 101.33 kPa, Liquid; for viscosity: Capillary tube (Ostwald / Ubbelohde) method; for mass density: Pycnometric method

CC(O)CNCC(C)O (configuration not stated) [N-(2-hydroxypropyl)-2-hydroxy-1-propanamine] + O
[1], w1 = 0.3873
Conditions	surface tension liquid-gas [mN/m]
303.15 K	45.3
313.15 K	44.4
323.15 K	43.2
333.15 K	42.1
343.15 K	40.5

[1], w1 = 0.3873
Conditions	mass density, 303.15 K [kg/m3]	mass density, 313.15 K [kg/m3]	mass density, 323.15 K [kg/m3]	mass density, 333.15 K [kg/m3]	mass density, 343.15 K [kg/m3]	viscosity, 303.15 K [mPa·s]	viscosity, 313.15 K [mPa·s]	viscosity, 323.15 K [mPa·s]	viscosity, 333.15 K [mPa·s]	viscosity, 343.15 K [mPa·s]
101 kPa	–	–	–	–	–	5.42	3.74	2.56	1.88	1.42
101.3 kPa	1016	1012	1006	1000	994.5	–	–	–	–	–

C1CNCCN1 [piperazine] + O
[1], w1 = 0.0516
Conditions	surface tension liquid-gas [mN/m]
303.15 K	69.56
313.15 K	67.98
323.15 K	66.49
333.15 K	65.17

[1], 101 kPa, w1 = 0.0516
Conditions	mass density [kg/m3]	viscosity [mPa·s]
303.15 K	998.34	0.959
313.15 K	993.9	0.775
323.15 K	989.79	0.641
333.15 K	985.1	0.542

O=S1(=O)CCCC1 [sulfolane]
[2]
Conditions	mass density [kg/m3]	surface tension liquid-gas [mN/m]	viscosity [mPa·s]
303.15 K	1262.3	47.95	10.18
313.15 K	1254	47.22	7.85
323.15 K	1245.7	46.61	6.15
333.15 K	1236.5	45.74	4.4
343.15 K	1229	45.16	3.57

O=S1(=O)CCCC1 [sulfolane] + O
[1], 101 kPa
Conditions	mass density, 303.15 K [kg/m3]	mass density, 313.15 K [kg/m3]	mass density, 323.15 K [kg/m3]	mass density, 333.15 K [kg/m3]	mass density, 343.15 K [kg/m3]	viscosity, 303.15 K [mPa·s]	viscosity, 313.15 K [mPa·s]	viscosity, 323.15 K [mPa·s]	viscosity, 333.15 K [mPa·s]	viscosity, 343.15 K [mPa·s]
w1 = 0.0346	1003	999.7	995.2	990.1	984.3	0.84	0.69	0.58	0.49	0.43
w1 = 0.0487	1007	1003	998.2	993	987	0.85	0.7	0.59	0.5	0.44
w1 = 0.0721	1012	1007	1003	998.9	991.7	0.88	0.73	0.61	0.52	0.45
w1 = 0.1022	1020	1016	1010	1005	998	0.92	0.76	0.64	0.55	0.48
w1 = 0.1635	1038	1032	1026	1020	1012	1.02	0.84	0.71	0.61	0.54

OCCN(CCO)CCO [triethanolamine]
[2]
Conditions	mass density [kg/m3]	surface tension liquid-gas [mN/m]	viscosity [mPa·s]
303.15 K	1119.6	45.13	405.6
313.15 K	1113.8	43.54	208.6
323.15 K	1107.9	41.85	116
333.15 K	1102	40.04	64.55
343.15 K	1096.2	38.11	38.79

OCCN(CCO)CCO [triethanolamine] + O
[1], w1 = 0.4227
Conditions	surface tension liquid-gas [mN/m]
303.15 K	54.5
313.15 K	53.8
323.15 K	53
333.15 K	52.3
343.15 K	51.4

[1], w1 = 0.4227
Conditions	mass density, 303.15 K [kg/m3]	mass density, 313.15 K [kg/m3]	mass density, 323.15 K [kg/m3]	mass density, 333.15 K [kg/m3]	mass density, 343.15 K [kg/m3]	viscosity, 303.15 K [mPa·s]	viscosity, 313.15 K [mPa·s]	viscosity, 323.15 K [mPa·s]	viscosity, 333.15 K [mPa·s]	viscosity, 343.15 K [mPa·s]
101 kPa	–	–	–	–	–	4.13	2.91	2.16	1.67	1.36
101.3 kPa	1052	1048	1043	1037	1032	–	–	–	–	–
